Values quoted from earlier work in patent publication US20180042845A1, “PREPARATIONS OF CANNABIS EMULSIONS AND METHODS THEREOF” (ONE WORLD CANNABIS LTD., priority 2015, published 2018).

Key:
CB2 receptor = CB2 receptor (Homo sapiens, UniProt P34972)
CB2 receptor, sequence (P34972 whole entry): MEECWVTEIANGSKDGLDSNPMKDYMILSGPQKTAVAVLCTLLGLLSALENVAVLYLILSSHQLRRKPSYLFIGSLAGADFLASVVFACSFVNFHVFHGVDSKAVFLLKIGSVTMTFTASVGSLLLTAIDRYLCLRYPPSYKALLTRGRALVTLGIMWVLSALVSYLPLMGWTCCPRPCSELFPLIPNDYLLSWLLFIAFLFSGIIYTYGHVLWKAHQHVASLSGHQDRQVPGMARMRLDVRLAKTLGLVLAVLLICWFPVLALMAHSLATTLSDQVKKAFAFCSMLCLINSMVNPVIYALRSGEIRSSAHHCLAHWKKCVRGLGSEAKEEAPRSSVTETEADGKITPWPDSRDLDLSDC

| Structure (SMILES) | Affinity for CB2 receptors (CB2 receptor) | Fraction of administered dose reaching systemic circulation (oral, first pass hepatic metabolism and high lipid solubility) | Fraction absorbed after a single oral dose (single dose) |
| --- | --- | --- | --- |
| C=C(C)[C@@H]1CCC(C)=C[C@H]1c1c(O)cc(CCCCC)cc1O [Cannabidiol] | very low affinity | – | – |
| CCCCCc1cc(O)c2c(c1)OC(C)(C)[C@@H]1CCC(C)=C[C@@H]21 [THC, Tetrahydrocannabinol] | – | 10-20% | 90-95% |
